Test results reported in ChEMBL document CHEMBL3301361, “Experimental in vitro DMPK and physicochemical data on a set of publicly disclosed compounds”.

Tests used:
physchem = details: octan-1-ol/water
in vitro = details: human

| logD (physchem; pH 7.4, LogD7.4) | microsomal CLint (in vitro; liver microsomes) [µL/min/mg] | microsomal CLint (in vitro; microsomes) [µL/min/mg] | Compound | logD (physchem; pH 7.4) |
| --- | --- | --- | --- | --- |
| 2.95 | < 3 |  | O=C(NC[C@@H](O)CN1CCC(Oc2ccc(Cl)c(Cl)c2)CC1)c1n[nH]c2ccccc12 |  |
| 0.15 |  | 22 | COc1ccccc1CNCc1ccc(CCNC[C@H](O)c2ccc(O)c3[nH]c(=O)sc23)cc1 |  |
| 3.29 | < 3 |  | CCc1nc2c(N)nc3ccccc3c2n1Cc1ccccc1 |  |
| 3.69 | 3 |  | O=C(NC[C@@H](O)CN1CCC(Oc2ccc(Cl)c(Cl)c2)CC1)c1n[nH]c(=O)c2ccccc12 |  |
| 1.89 |  | 9 | Cc1cccc(Nc2ccccc2C(=O)O)c1C [MEFENAMIC ACID] |  |
| 2.42 |  | 21 | NC(=O)Nc1sc(-c2ccccc2)cc1C(N)=O |  |
| 2.41 | 24 |  | CCCCC(CC)CNC(=O)c1cc(-n2ncc(=O)[nH]c2=O)ccc1Cl (configuration not stated) |  |
| 2.84 | 33 |  | O=C(O)c1cccc(-c2ccc3c(C(=O)NCC45CC6CC(CC(C6)C4)C5)c(Cl)ccc3n2)c1 |  |
| 3.69 |  | 11 | Nc1nc(NCc2ccccc2)nc2c1nc(O)n2Cc1ccccc1 |  |
| 1.56 | < 3 |  | Cc1ccc(C(=O)NC(C)C)cc1-n1cnc2ccc(N3CCN(C)CC3)cc2c1=O |  |
| 0.15 |  | < 3 | Cc1ccc(C#N)cc1-c1cc(C(F)(F)F)ccc1OCC(=O)O |  |
| 2.87 | < 3 |  | Cc1c(Sc2ccc(Cl)cc2)c2cc(Cl)ccc2n1CC(=O)O |  |
| 3.02 |  | < 3 | Cc1cc(Cl)ccc1OC1CCN(C[C@H](O)CNC(=O)c2c[nH]nc2C(F)(F)F)CC1 |  |
| 3.92 |  | 61 | c1ccc(Sc2ccc3ccccc3n2)cc1 |  |
| -0.89 | < 3 |  | CNC(=O)c1cccc2c1c(Sc1ccc(Cl)cc1)c(C)n2CC(=O)O |  |
| 0.05 | 3 |  | Cc1ccc2c(c1)c([S+]([O-])c1ccc(Cl)cc1)c(C)n2CC(=O)O (configuration not stated) |  |
| 1.78 | 23 |  | Cc1ccc2c(c1)c(-c1ccnc3ccc(C(F)(F)F)cc13)c(C)n2CC(=O)O |  |
| 3.48 |  | 34.7 | Cc1cc2c(C(=O)NC[C@H](C)c3ccccc3)c(O)c(O)cc2c(O)c1-c1c(C)cc2c(C(=O)NC[C@H](C)c3ccccc3)c(O)c(O)cc2c1O [1,1',6,6',7,7'-HEXAHYDROXY-3,3'-DIMETHYL-N5-((R)-2-PHENYLPROPYL)-N5'-((R)-2-PHENYLPROPYL)-2,2'-BINAPHTHYL-5,5'-DICARBOXAMIDE (ATROPISOMERIC MIX)] |  |
| 0.79 |  | < 3 | Cc1c(Sc2ccc(Cl)cc2)c2ccc(S(C)(=O)=O)cc2n1CC(=O)O |  |
| 3.02 | < 3 |  | O=C(Nc1ccc(S(=O)(=O)N2CCOCC2)cc1)c1cc(Cl)ccc1NS(=O)(=O)c1ccc(Cl)s1 |  |
| 2.25 | 5 |  | Cc1ccc(C(=O)NC2CCC2)cc1-n1cnc2ccc(N3CCN(C)CC3)cc2c1=O |  |

More lines, now with the values behind:

| Compound | logD (physchem; pH 7.4, LogD7.4) | microsomal CLint (in vitro; liver microsomes) [µL/min/mg] | microsomal CLint (in vitro; microsomes) [µL/min/mg] | logD (physchem; pH 7.4) |
| --- | --- | --- | --- | --- |
| CCO[C@@H]1OC(=O)C[C@@H]1NC(=O)[C@@H]1CCCN2C(=O)CC[C@H](NC(=O)c3nccc4ccccc34)C(=O)N12 | 1.16 | < 3 |  |  |
| C=CCN(C(=O)Cc1ccc(S(C)(=O)=O)cc1)C1CCN(CCC(c2ccccc2)c2ccccc2)CC1 | 3.1 | 10 |  |  |
| N#Cc1c(-c2ccccc2)nc(SCc2ccccc2)[nH]c1=O | 1.56 |  | 6 |  |
| Cc1nc(CSc2nc(N[C@H](C)CO)c3sc(N)nc3n2)cs1 | 1.73 |  | 3 |  |
| Cc1ccc2nc(CCNCCCO)ccc2c1NC(=O)CC12CC3CC(CC(C3)C1)C2 | 1.18 | 33 |  |  |
| CC1CN(S(=O)(=O)c2ccccc2)CCN1Cc1cc(Cl)ccc1OCC(=O)O (configuration not stated) | 0.69 |  | < 3 |  |
| C[C@H]1CN(Cc2cc(Cl)ccc2OCC(=O)O)CCN1C(=O)Cc1cccc(Cl)c1 |  |  | < 3 | 0.78 |
| CCO/N=C(\c1ccc(Br)cc1)C1CCN(C2(C)CCN(C(=O)c3c(Cl)cncc3Cl)CC2)CC1 | 4 | 4 |  |  |
| Cc1ccc2c(c1)C1(CCN(CCc3nc(-c4ccccc4)oc3C)CC1)OC(=O)N2 |  | 79.4 |  | 4.2 |
| Cc1c(Cl)ccc(OC2CCN(C[C@H](O)CNC(=O)c3c[nH]nc3C(F)(F)F)CC2)c1Cl | 3.66 | < 3 |  |  |
| CCN(C(=O)Cc1ccc(S(C)(=O)=O)cc1)C1CCN(CCC(c2ccccc2)c2ccccc2)CC1 | 3 | 16 |  |  |
| CC1CN(C(=O)c2cc3ccccc3[nH]2)CCN1 (configuration not stated) | 0.94 | 8 |  |  |
| c1cn(-c2ccc(Oc3nccc(Oc4ccc5c(c4)OCO5)n3)cc2)cn1 | 3.27 |  | 13 |  |
| NS(=O)(=O)c1ccc(Nc2nccc(-c3ccccc3)n2)cc1 | 2.86 | < 3 |  |  |
| O=C(CC12CC3CC(CC(C3)C1)C2)Nc1ccc2[nH]ncc2c1 | 4.03 | 21 |  |  |
| O=C(NS(=O)(=O)Cc1ccccc1)N1CCC(N2CCC(Oc3ccc(Cl)c(Cl)c3)CC2)CC1 | 2.13 | < 3 |  |  |
| N=C(N)c1cc2c(I)cccc2s1 | 0.74 | 4 |  |  |
| COCCNCc1ccc(Nc2ncc3cc(-c4ccncc4)ccc3n2)cc1 | 1.86 | 42.7 |  |  |
| O=C(NCC12CC3CC(CC(C3)C1)C2)c1ccccc1Cl | 4.05 | 69 |  |  |
| CCc1ccc(CCNCCCSCCNC[C@H](O)c2ccc(O)c3[nH]c(=O)sc23)cc1 | 0.86 | 68 |  |  |
